Test results from US20050059574A1 (priority 2000, published 2005).
Several values for one entry are separate records, joined by “and”; a condition that tells them apart may be missing. Equal entries are not always repeated.

Key:
[1] = system: dogs with electrically induced ventricular fibrillation; experiment: Phase Ib: cardiac resuscitation of dogs after induced ventricular fibrillation (Thumper CPR, external defibrillation, T3a bolus into right ventricle); type: in vivo, dog; details: Post T3a (15 m), individual dogs
Experimental: All animals were fasted overnight and anesthesia was induced by intravenous sodium thiopental (Pentothal sodium 15-25 mg/kg). After intubation and ventilation by a ventilator (North American Dräger, Anesthesia and Ventilator, Model AVE-K, Serial No. 5033), anesthesia was maintained by 2% isoflurane (Isoflurane Vaporizer, R-Vapor, R-24045), and oxygen. ECG (Hewlett Packard Model No. 78346A). Oxygen saturation was monitored continuously. Preoperatively, all animals received Acepromazine maleate, 0.25-0.5 mg, I.M, lactated Ringer's solution was given intravenously (250 ml-350 ml/hr) during the procedure.
A 8.5Fr. catheter sheath was introduced into the right femoral artery and the side arm was connected to a fluid transducer for the continuous measurement of systemic arterial blood pressure. A 7Fr. Bipolar Multipurpose A-2 Electrode Catheter, 1 Lumelec™ (Lot no. 30395908, Catalog no. 528-724, Cordis, USA) tipped with pressure transducer with 2 side holes, 2 electrodes with an open end, 125 cm long, and 0.038 inch diameter, was advanced through the catheter sheath, and placed into the left ventricle. Continuous measurement of the systemic left ventricular pressure was obtained. Analog signals from the pressure transducers were obtained using an amplifier (PM-1000, CWE Inc., Ardmore, Pa.).
A 8.5Fr. catheter sheath was introduced into the right femoral vein and a 7Fr. MP A2, Multipurpose high flow catheter (catalog no. 527-742, Cordis, USA) with open end and side holes was placed into the right ventricle for T3a injections. Another 7Fr. catheter sheath was introduced into the left femoral artery and a 6Fr. pigtail catheter (catalog no. 527-654S, 110 cm, 155° angled) was placed into the descending aorta for the collection of aortic blood samples after T3a injections into the right ventricle. ECG (Hewlett-Packard, Model No. 78346A, Ser. No. 2320A00522) was continuously monitored. A temperature-monitoring device (T. SIN, Japan, designed for YSI series 400 thermistors), connected to the data acquisition system, was introduced into the external ears of all the animals to continuously measure body temperature.
The two distal ends of the 7Fr. Bipolar Multipurpose A-2 Electrode Catheter were connected to a Transformer. The electrical system can deliver 15V, 20 mA AC current through the pacing catheter system. The anesthesia was stopped. A venous blood sample from the right ventricle was obtained. Lid reflexes returned in several minutes.
The lid reflexes were checked by the finger method system and when frequent blinking of the lids was obtained, procedures for the ventricular fibrillation were carried out. […]
The force of compression necessary to achieve this baseline condition was recorded and not altered during subsequent provision of chest compressions. […]

[2] = system: dogs with electrically induced ventricular fibrillation; experiment: Phase Ia (methodology section): fibrillation/defibrillation in dogs with T3a or epinephrine; type: in vivo, dog; details: individual dogs
Text: Phase 1a was dedicated towards developing the basic methodology in the initial experiments, manual chest compression (CPR) and an internal defibrillator were employed. Induction of ventricular fibrillation and defibrillation were problematic with the internal electrodes because of the size mismatch: electrodes designed for humans being used in a smaller sized animal. In later experiments, the internal system was replaced with an LV pacing catheter connected to AC current via a step-down transformer (to induce ventricular fibrillation), and a new external, “hands-off” defibrillator. The manual chest compression was replaced with a THUMPER CPR system.
In the experiments, T3a was given 30 seconds before defibrillation. Preferably, T3a injection was given 60 to 90 seconds after defibrillation.
The results section was divided into Phases Ia (n=9) and Ib (n=8). The hemodynamic data were not consistently available in Phase Ia as there was no spontaneous or induced recovery except for 3 animals. Use of T3a was limited to only 3 dogs in this phase although epinephrine was used in 5 of them. This phase was dedicated towards the development of the Phase Ib parameters.
HVS-02 Fibrillator and Defibrillator were used in the tests. The operating instructions for the HVS-02 Fibrillator and Defibrillator can be found in the Manual for HVS-02 Fibrillator and Defibrillator.
Phase Ia was dedicated towards developing the basic methodology. […] In 3 animals, the hemodynamic data after defibrillation were less than the pre-fibrillatory data. […] In the experiments, internal defibrillator was used for the preliminary experiments and T3a was given just before defibrillation (30 seconds). Moreover, THUMPER CPR was used in the last 2 dogs instead of manual CPR. Thumper CPR worked well and it was used for the subsequent T3a experiments of Phase Ib. Manual chest compression was maintained for another 5 minutes after defibrillation and T3a or epinephrine injections. Bolus epinephrine injection (100 μg/kg) was used in 5 random dogs.

[3] = Serum total T3 levels after T3a bolus during cardiac resuscitation in dogs; type: in vivo, dog
Experimental: Subsequent blood samples were obtained from the arterial circulation at 0.5 to 1.5 minutes after the bolus injection, and also at 15 to 20 minutes and 30 minutes, respectively.
Before sending the blood sample for immunoassay, in each experiment all the blood samples were collected in red-topped serum separator tubes. The tubes were centrifuged at 2500 rpm on a tabletop centrifuge for 10 minutes at 4° C. to separate the cells from the serum. The blood samples were then stored and frozen at −4° C.

[4] = Pharmacokinetic studies in a rodent model: serum T3 after single intramuscular bolus; type: in vivo, rat; details: rats; for Serum T3 level as % of the peak value: within 2 hours of injection
[5] = system: purified cultured cardiac myocytes; details: 125I-T3 at 10^−8 M
[6] = background statement; bound to thyroxine-binding globulin in human serum; cited from earlier work

CNC[C@H](O)c1ccc(O)c(O)c1 [Epi, epinephrine]
D. AoP [1]: 64.0 mmHg
Recover [1]: Yes
S. AoP [1]: 82.7 mmHg
S. LVP [1]: 103.0 mmHg
Recover ([2]; After D-Fib (+ drug)): No (2×) and Yes
D. AoP ([2]; Post (15 m)): 76.1 mmHg
Recover ([2]; Post (15 m)): No (2×) and Yes
S. AoP ([2]; Post (15 m)): 89.3 mmHg
S. LVP ([2]; Post (15 m)): 110.2 mmHg

N[C@@H](Cc1cc(I)c(Oc2ccc(O)c(I)c2)c(I)c1)C(=O)O [T3, 3,5,3′-triiodothyronine]
Time serum T3 levels were maintained at high level ([3]; 4 μg T3/kg): 30 min
Serum T3 levels ([3]; 4 μg T3/kg, within 2 minutes of drug administration): greater than 9000 ng/dl
Increase of serum T3 level over baseline ([3]; bolus 4 μg/kg, one minute after injection, baseline 87±6 ng/dl): 100 fold
Half-life of T3 in serum, 5 μg/kg versus 100 μg/kg ([4]; i.m.): identical
Serum T3 level as % of peak values ([4]; i.m., 24 hours after injection, within normal physiological range): 10%
Serum T3 level as % of the peak value ([4]; i.m., high dose 100 μg/Kg): 64%
Serum T3 level as % of the peak value ([4]; i.m., low dose 5 μg/Kg): 90%
Time to peak serum T3 values ([4]; intramuscular, 5 μg/Kg and 100 μg/Kg): ≤ 30 min
Time to detection of T3 in the nucleus of the cell [5]: ≤ 5 min

NC(Cc1cc(I)c(Oc2cc(I)c(O)c(I)c2)c(I)c1)C(=O)O (stereo not shown) [T4]
Half-life [6]: 140 to 170 h
